Patent US12234207B2, “Halo-(3-(phenylsulfonyl)prop-1-enyl)pyridine derivative and use thereof” (Cureverse Incorporated, priority 2018, dated 2025)
“And” between values parts separate entries of the source, which are not always exact repeats. Equal values may be shown once.

Experiments:
Nrf2 [1] = experiment: Western blot of Nrf2 in nuclear extract of BV2 cells; assay type: cell-based; conditions: 0 μM to 10 μM, 6 hours, relative to Lamin B1
Protocol: Through Experimental Example 1, the activation of Nrf2 by the compounds of the present invention was indirectly confirmed. Thus, in order to directly confirm the effect of the compounds of the present invention on Nrf2 activation, Western blot was performed. […] Specifically, BV2 cells were loaded in a 25T flask at a density of 2×10^6 cells/flask in an amount of 4 mL and incubated in RPM1640 medium for 24 hours. […] The thus-incubated cells were recovered, and the nucleus and cytoplasmic extracts were separated. The thus-separated nuclear extract was electrophoresed by 10% SDS-PAGE, transferred to a PVDF membrane, and blocked with bovine serum albumin (BSA). Thereafter, the amount of Nrf2 protein in the nucleus was measured using an anti-Nrf2 antibody, and the results are shown in FIG. 1. The amount of Nrf2 was measured relative to Lamin B1, which refers to the same amount of nuclear extract.

dopaminergic neurons = experiment: Tyrosine hydroxylase immunohistochemical staining of corpus striatum and substantia nigra, MPTP mice; assay type: in vivo, C57/BL6 mice; conditions: Compound 15 orally
Description: From the results of Experimental Example 8, the effect of restoring exercise ability by the compound of the present invention was confirmed. In order to confirm whether the recovery of such exercise ability was due to the neuroprotective effect of the compounds of the present invention, brains were excised from mice and analyzed by immunohistochemical staining using tyrosine hydroxylase used as a marker for dopaminergic neurons. As a site for analysis, the corpus striatum and substantia nigra, which are concentrated with dopaminergic neurons, were selected. Specifically, after anesthetizing the mice in the negative control group, the positive control group, and the experimental group with avertin, physiological saline and 4% formaldehyde were injected into the heart, and the brain was excised, which was sequentially immersed in 4% formaldehyde and 30% sucrose, and stored in the refrigerator for one day each. Thereafter, the tissue fragments of the corpus striatum and substantia nigra were obtained from the stored brain using a cryosectioning machine. The brain tissue fragments were stained by DAB staining using a tyrosine hydroxylase antibody, which is specifically expressed in dopaminergic neurons, by immunohistochemical staining, and observed with a microscope, and the results are shown in FIG. 4.

[2] = tested on: MPTP-induced Parkinson's disease model; experiment: Vertical grid test in MPTP-induced Parkinson's disease mice; assay type: in vivo, C57/BL6 mice; conditions: orally 20 mg/mL once a day for 3 days from the day before MPTP; test 6 days after MPTP
Protocol: (§1) A specifically designed animal experiment schedule is shown at the top of FIG. 3. […] The MPTP-induced Parkinson's disease model was prepared by injecting 20 mg/kg of MPTP intraperitoneally at 2-hour intervals a total of 4 times in a day. In the negative control group, physiological saline solution containing no MPTP was injected at the same time. In order to confirm whether or not Parkinson's disease was induced, motor impairment caused by dopaminergic neuronal cell death, known as the main symptom of Parkinson's disease, was confirmed by a vertical grid test and a coat-hanger test.
The vertical grid test evaluates the time to climb down when an experimental animal model is placed on a vertical ladder. In the present invention, the time to turn towards the floor and the total time taken to climb down from the ladder were measured once the mice were placed on a ladder.

GCLC, GCLM, and HO-1 = experiment: Western blot of Nrf2-related antioxidant enzymes in BV2 cells; assay type: cell-based; conditions: 0 μM to 10 μM, 24 hours, relative to actin
Description: As a transcription factor, Nrf2 acts to protect cells by increasing antioxidant enzymes in the nucleus. Through preceding Experimental Examples 1 and 6, the activation of Nrf2 by the compound of the present invention was confirmed directly or indirectly. Thus, whether the activated Nrf2 increases antioxidant enzymes was confirmed by measuring the amount of antioxidant enzymes using Western blot. As antioxidant enzymes to be detected, GCLC, GCLM, and HO-1, expression of which is known to increase due to Nrf2, were selected. Specifically, BV2 cells were loaded at a density of 5×10^5 cells/well in a 6-well plate in an amount of 1.5 mL, and incubated in RPM1640 medium for 24 hours. […] The thus-incubated cells were recovered and lysed to extract the total protein, and then subjected to electrophoresis by 10% SDS-PAGE. The total extract subjected to electrophoresis was transferred to a PVDF membrane and then blocked with bovine serum albumin. Thereafter, the amount of antioxidant enzymes expressed in cells was measured using antibodies corresponding to each antioxidant enzyme, and the results are shown in FIG. 2.

Solubility in water = assay type: physicochemical
Description: In the development of new drugs, the solubility of drugs is one of the very important factors associated with the bio-absorption rate. […] In addition, drugs with low solubility may crystallize in tissues or cause serious toxicity, and thus, the FDA requires additional research results on oral drugs with low solubility. Furthermore, low solubility may also be the biggest cause of failure in the development of candidate materials.

[3] = tested on: MPTP-induced Parkinson's disease model; experiment: Coat-hanger test in MPTP-induced Parkinson's disease mice; assay type: in vivo, C57/BL6 mice; conditions: orally 20 mg/mL once a day for 3 days from the day before MPTP; time limit 3 minutes
Protocol: as §1
The coat-hanger test, which is another behavioral experiment that evaluates exercise ability, was conducted as follows, as shown in the bottom left of FIG. 3: when the mice were placed in the middle of a hanger 30 cm away from the floor, the mice moved toward a safe position on the top of the hanger while being hanged, and a score was assigned according to the position at the time point with a time limit of 3 minutes. The specific experimental method and the result are shown at the bottom of FIG. 3. As shown in the graph at the bottom of FIG. 3, most of the negative control moved to the top of the hanger, corresponding to 5 points, but in the case of the positive control, 2 to 3 points were recorded because the mice mainly stopped at both ends of the bottom of the hanger.

[4] = background statement; cited from earlier work
CYP 2D6 = molecular target: T1, CYP 2D6 (Homo sapiens, UniProt P10635); experiment: Inhibition of CYP activity in human liver microsomes, 2D6; assay type: in vitro ADME; conditions: 10 μM compound, human liver microsomes 0.25 mg/mL; % activity relative to the negative control
T1 construct: from tissue; host or cells: human liver microsomes
Protocol: (§2) Thereafter, the reaction was terminated by adding an acetonitrile solution containing an internal standard substrate (terfenadine), followed by centrifugation (14,000 rpm, 4° C.) for 5 minutes. Subsequently, the supernatant was injected into the LC-MS/MS system, and the metabolites of the substrate drugs were simultaneously analyzed to evaluate the inhibitory ability of these compounds on drug metabolic enzymes. The metabolites of each CYP isoenzyme indicator drug generated through the above reaction were analyzed using the Shimadzu Nexera XR system and TSQ vantage (Thermo). A Kinetex C18 column was used as the HPLC column, and distilled water containing 0.1% formic acid and acetonitrile containing 0.1% formic acid were used as the mobile phase. The generated metabolites were quantified using the quantification mode of multiple reaction monitoring (MRM), and data were analyzed with Xcalibur (version 1.6.1).

hERG channel = hERG channel (Homo sapiens, UniProt Q12809); experiment: hERG channel-binding inhibition (fluorescent tracer polarization); conditions: hERG channel-containing membrane
Description: The human ether-a-go-go-related gene (hERG) ion channel is an important component of cardiac repolarization, and inhibitors of this channel can induce arrhythmia and sudden death. […] When a fluorescent hERG channel tracer binds to a membrane containing the hERG channel protein, the rotation of the tracer is restricted, thereby maintaining a high polarization state. However, when a competitive inhibitor binds to the hERG channel, the tracer is competitively pushed away from the membrane and depolarized as it loses its direction.

CYP 2C9 = molecular target: T2, CYP 2C9 (Homo sapiens, UniProt P11712); experiment: Inhibition of CYP activity in human liver microsomes, 2C9; assay type: in vitro ADME; conditions: 10 μM compound, human liver microsomes 0.25 mg/mL, % activity relative to the negative control
T2 construct: from tissue; host or cells: human liver microsomes
Protocol: as §2

Nrf2 [5] = experiment: Nrf2 functional cell-based assay (DisoveRx), luminescence; conditions: relative to Compound 15
[6] = background statement, cited from earlier work
CYP 3A4 = molecular target: T3, CYP 3A4 (Homo sapiens, UniProt P08684); experiment: Inhibition of CYP activity in human liver microsomes, 3A4; assay type: in vitro ADME; conditions: 10 μM compound, human liver microsomes 0.25 mg/mL; % activity relative to the negative control
T3 construct: from tissue; host or cells: human liver microsomes
Protocol: as §2

[7] = background statement; cited from earlier work; remark: listed apart in the source
CYP 2C19 = molecular target: T4, CYP 2C19 (Homo sapiens, UniProt P33261); experiment: Inhibition of CYP activity in human liver microsomes, 2C19; assay type: in vitro ADME; conditions: 10 μM compound, human liver microsomes 0.25 mg/mL; % activity relative to the negative control
T4 construct: from tissue; host or cells: human liver microsomes
Protocol: as §2

[8] = when administered into the body

T2 sequence (P11712 whole entry): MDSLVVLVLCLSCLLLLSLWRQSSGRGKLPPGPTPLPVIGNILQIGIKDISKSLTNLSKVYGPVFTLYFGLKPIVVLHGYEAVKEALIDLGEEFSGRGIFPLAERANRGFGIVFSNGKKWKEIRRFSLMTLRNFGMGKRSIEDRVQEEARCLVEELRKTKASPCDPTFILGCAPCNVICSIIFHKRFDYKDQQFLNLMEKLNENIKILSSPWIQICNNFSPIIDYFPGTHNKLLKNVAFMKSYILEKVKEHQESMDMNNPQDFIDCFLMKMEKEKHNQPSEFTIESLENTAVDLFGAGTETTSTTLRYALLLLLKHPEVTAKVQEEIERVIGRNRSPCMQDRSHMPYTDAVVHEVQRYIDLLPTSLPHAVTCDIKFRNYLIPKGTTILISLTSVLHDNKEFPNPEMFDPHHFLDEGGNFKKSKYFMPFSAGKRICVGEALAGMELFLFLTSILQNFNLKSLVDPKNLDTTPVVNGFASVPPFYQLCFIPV
Sequence of hERG channel (Q12809 whole entry): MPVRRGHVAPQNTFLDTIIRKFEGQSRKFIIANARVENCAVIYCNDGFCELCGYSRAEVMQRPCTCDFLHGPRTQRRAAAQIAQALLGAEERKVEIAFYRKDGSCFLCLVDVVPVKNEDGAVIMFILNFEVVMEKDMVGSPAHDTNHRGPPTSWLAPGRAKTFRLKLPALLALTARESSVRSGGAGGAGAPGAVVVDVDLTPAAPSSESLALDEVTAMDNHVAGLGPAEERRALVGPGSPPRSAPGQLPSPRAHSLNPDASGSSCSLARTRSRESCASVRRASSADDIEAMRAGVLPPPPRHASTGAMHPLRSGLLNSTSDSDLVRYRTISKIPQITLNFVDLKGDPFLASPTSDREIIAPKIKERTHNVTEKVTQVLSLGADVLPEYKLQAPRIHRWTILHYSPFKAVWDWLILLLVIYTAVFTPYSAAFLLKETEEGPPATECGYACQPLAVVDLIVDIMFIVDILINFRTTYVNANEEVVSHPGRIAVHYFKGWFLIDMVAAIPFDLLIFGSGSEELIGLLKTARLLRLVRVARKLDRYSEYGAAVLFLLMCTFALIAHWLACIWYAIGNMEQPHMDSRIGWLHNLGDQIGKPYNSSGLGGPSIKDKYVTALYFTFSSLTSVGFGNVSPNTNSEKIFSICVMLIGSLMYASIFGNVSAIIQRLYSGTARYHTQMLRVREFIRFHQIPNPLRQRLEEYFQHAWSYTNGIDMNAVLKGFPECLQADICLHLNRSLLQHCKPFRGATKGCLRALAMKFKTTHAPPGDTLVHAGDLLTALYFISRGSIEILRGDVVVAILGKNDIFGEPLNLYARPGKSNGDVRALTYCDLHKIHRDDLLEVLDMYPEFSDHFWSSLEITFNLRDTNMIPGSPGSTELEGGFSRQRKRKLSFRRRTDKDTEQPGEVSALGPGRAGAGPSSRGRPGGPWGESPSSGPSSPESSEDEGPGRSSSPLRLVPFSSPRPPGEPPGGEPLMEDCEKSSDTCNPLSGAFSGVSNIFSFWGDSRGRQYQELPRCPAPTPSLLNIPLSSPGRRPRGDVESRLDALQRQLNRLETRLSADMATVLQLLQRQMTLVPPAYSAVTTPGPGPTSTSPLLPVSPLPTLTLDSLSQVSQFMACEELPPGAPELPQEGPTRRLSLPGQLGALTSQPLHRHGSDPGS
T4 sequence (P33261 whole entry): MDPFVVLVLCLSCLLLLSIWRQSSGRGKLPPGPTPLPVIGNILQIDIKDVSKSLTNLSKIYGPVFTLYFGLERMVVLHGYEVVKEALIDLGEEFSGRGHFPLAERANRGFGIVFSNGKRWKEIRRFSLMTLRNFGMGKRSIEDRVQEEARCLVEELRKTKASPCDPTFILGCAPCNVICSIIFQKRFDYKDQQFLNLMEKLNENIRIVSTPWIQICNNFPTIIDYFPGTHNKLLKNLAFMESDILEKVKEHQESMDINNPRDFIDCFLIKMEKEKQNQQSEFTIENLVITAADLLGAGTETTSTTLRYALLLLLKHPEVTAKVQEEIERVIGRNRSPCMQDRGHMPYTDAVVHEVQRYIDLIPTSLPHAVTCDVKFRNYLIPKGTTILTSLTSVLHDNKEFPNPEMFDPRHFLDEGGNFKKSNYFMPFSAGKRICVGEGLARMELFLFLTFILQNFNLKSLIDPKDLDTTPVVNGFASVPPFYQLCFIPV
T1 sequence (P10635 whole entry): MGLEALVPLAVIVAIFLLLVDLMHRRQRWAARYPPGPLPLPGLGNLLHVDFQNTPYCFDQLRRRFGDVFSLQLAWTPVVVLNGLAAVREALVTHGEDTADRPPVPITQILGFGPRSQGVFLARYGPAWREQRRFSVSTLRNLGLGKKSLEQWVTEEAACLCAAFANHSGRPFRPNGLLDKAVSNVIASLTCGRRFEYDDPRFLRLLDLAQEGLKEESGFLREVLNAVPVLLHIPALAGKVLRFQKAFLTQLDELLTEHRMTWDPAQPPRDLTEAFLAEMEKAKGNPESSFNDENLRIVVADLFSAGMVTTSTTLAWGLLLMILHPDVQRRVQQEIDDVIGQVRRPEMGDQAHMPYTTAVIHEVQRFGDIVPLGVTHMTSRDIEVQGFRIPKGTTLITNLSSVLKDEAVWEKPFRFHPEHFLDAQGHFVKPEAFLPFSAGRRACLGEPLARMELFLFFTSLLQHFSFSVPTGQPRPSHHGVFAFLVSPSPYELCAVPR
T3 sequence (P08684 whole entry): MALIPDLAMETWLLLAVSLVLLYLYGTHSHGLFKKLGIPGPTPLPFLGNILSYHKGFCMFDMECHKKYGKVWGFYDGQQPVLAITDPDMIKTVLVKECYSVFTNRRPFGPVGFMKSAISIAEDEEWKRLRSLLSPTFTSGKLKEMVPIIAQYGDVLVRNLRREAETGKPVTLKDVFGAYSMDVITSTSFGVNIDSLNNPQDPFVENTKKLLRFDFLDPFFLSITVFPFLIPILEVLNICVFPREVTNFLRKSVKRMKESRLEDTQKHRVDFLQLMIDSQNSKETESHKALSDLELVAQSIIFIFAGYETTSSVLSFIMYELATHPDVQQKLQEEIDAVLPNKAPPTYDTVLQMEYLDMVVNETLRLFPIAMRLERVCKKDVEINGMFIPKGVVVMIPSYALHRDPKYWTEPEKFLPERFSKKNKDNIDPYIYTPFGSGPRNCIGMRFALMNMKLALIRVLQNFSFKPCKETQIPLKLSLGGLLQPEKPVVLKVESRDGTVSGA

| SMILES | Amount of Nrf2 protein in the nucleus (Nrf2 [1]) | Tyrosine hydroxylase staining of corpus striatum and substantia nigra (dopaminergic neurons) | Vertical grid test: time to turn [2] | Vertical grid test: total time to climb down [2] | Expression of Nrf2 and antioxidant enzymes GCLC, GCLM, and HO-1 (GCLC, GCLM, and HO-1) | solubility (Solubility in water) [µg/mL] | Coat-hanger test score, average [3] [points] | Time until dissipated when administered into the body [4] [h] | CYP 2D6 activity (CYP 2D6) [%] | IC50 (hERG channel) | CYP 2C9 activity (CYP 2C9) [%] | CYP 2C9 activity (CYP 2C9; listed as Comparative Example 1) [%] | Effect of inducing Nrf2 activity as % of the level of Compound 15 (Nrf2 [5]) | Cardiac toxicity [6] | Bioavailability [6, 8] | Drug metabolic stability [6, 8] | CYP 3A4 activity (CYP 3A4) [%] | Solubility in water (in words) [7] | CYP 2C19 activity (CYP 2C19) [%] |
| --- | --- | --- | --- | --- | --- | --- | --- | --- | --- | --- | --- | --- | --- | --- | --- | --- | --- | --- | --- |
| Cl.O=S(=O)(/C=C/c1ncccc1F)c1ccc(OCCCN2CCOCC2)cc1 [Compound 15, (E)-4-(3-(4-(2-(3-fluoropyridin-2-yl)vinylsulfonyl)phenoxy)propyl)morpholine hydrochloride] | promotes the activation of Nrf2 in a concentration-dependent manner | the staining became dark again | reduced again to a level similar to that of the negative control group | reduced again to a level similar to that of the negative control group | increased the expression of antioxidant enzymes through Nrf2 activation in a concentration-dependent manner | ≥ 10000 | ≥ 4 |  |  |  |  |  |  |  |  |  |  |  |  |
| C[S+]([O-])CCCCN=C=S (centres unmarked) [SFN (sulforaphane), 1-isothiocyanato-4-methylsulfinylbutane] |  |  |  |  |  |  |  | ≤ 1 |  |  |  |  |  |  |  |  |  |  |  |
| COc1ccccc1S(=O)(=O)/C=C/c1ccccc1Cl [VSC2, (E)-1-chloro-2-(2-(2-methoxyphenylsulfonyl)vinyl)benzene, reference compound] |  |  |  |  |  | ≤ 10 |  |  | 54.9 | 1000 nM and 1200 nM | 100.0 | 100 | about 60% | cardiac toxicity | low | low | 55.6 | low | 16.8 |
